Assay results published in ChEMBL document CHEMBL1131661, “Use of the Suzuki reaction for the synthesis of aryl-substituted heterocycles as corticotropin-releasing hormone (CRH) antagonists” (Bioorg Med Chem Lett, 1999).

Biological target: T1, Corticotropin-releasing factor receptor 1 (Homo sapiens, UniProt P34998)
T1 sequence (P34998 whole entry): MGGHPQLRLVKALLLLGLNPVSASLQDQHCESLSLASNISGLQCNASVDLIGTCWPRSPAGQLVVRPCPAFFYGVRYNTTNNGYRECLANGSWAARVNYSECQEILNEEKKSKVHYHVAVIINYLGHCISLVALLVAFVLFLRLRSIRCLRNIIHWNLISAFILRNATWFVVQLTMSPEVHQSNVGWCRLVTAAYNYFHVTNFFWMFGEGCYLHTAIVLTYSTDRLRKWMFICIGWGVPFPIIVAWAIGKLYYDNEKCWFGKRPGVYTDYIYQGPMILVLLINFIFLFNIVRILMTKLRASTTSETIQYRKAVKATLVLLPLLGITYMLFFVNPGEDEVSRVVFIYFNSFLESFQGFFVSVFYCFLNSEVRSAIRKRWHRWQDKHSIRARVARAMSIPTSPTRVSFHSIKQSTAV
Assay: Antagonistic activity for Corticotropin releasing factor receptor 1
Type: functional

Ki	SMILES
23.1 nM	COc1cc(Br)c(Nc2nc(C)nc(-c3ccccc3C(F)(F)F)c2[N+](=O)[O-])c(OC)c1
5.5 nM	CCN(c1nc(C)nc(-c2ccccc2C(F)(F)F)n1)c1ccc(C(C)C)cc1Br
95.5 nM	COc1cc(Br)c(-n2c(=O)n(C)c3c(-c4ccccc4C(F)(F)F)nc(C)nc32)c(OC)c1
60.3 nM	COc1cc(Br)c(Nc2nc(C)nc(-c3ccccc3C(F)(F)F)c2N)c(OC)c1
32.3 nM	COc1cc(Br)c(-n2c(C)nc3c(-c4ccccc4C(F)(F)F)nc(C)nc32)c(OC)c1
2 nM	CCN(CC1CC1)c1nc(C)nc(Nc2c(Cl)cc(Cl)cc2Cl)c1C
33.4 nM	CSc1nn(-c2c(Cl)cc(Cl)cc2Cl)c2nc(C)nc(-c3ccccc3C(F)(F)F)c12
202 nM	COc1cc(Br)c(-n2c(=O)[nH]c3c(-c4ccccc4C(F)(F)F)nc(C)nc32)c(OC)c1
168 nM	Cc1cc(C)c(-n2nnc3c(-c4ccccc4C(F)(F)F)nc(C)nc32)c(C)c1
9.7 nM	Cc1cc(C)c(-n2c(C)c(C)c3c(-c4ccccc4C(F)(F)F)nc(C)nc32)c(C)c1
21.4 nM	COc1cc(Br)c(-n2nnc3c(-c4ccccc4C(F)(F)F)nc(C)nc32)c(OC)c1
3.5 nM	CCCCN(CC)c1nc(C)nc2c1nnn2-c1c(Br)cc(OC)cc1OC
